Results taken from the supplement of paper PMC11061612.

Legend:
[1] = system: 786-0 (Kidney Carcinoma); experiment: Bliss excess, mean over the matrix (fraction); higher = more synergy
Method in brief: (§1)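 Cell lines in DMEM/F12 or RPMI with 10% FBS were plated in 1536-well plates, held 24 hours at 37°C, 5% CO2, then given two-drug dose matrices for 72 hours (DMSO typically 0.2%). Viability was read by CellTiter-Glo 2.0 luminescence and scaled as inhibition from 0 (vehicle wells) to 1 (blank wells). Combination Emax is the second-highest inhibition in the matrix; Bliss excess is observed combination effect minus expected EA + EB − EA·EB, EA and EB being single-agent effects.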

[2] = system: AsPC-1 (Pancreatic Carcinoma); experiment: as above
Method in brief: as §1

[3] = system: CHL-1 (Melanoma); experiment: as above
Method in brief: as §1

[4] = system: COLO-684 (Endometrial Carcinoma); experiment: as above
Method in brief: as §1

[5] = system: ES-2 (Ovarian Carcinoma); experiment: as above
Method in brief: as §1

[6] = system: FLO-1 (Esophageal Adenocarcinoma); experiment: as above
Method in brief: as §1

[7] = system: HTC-C3 (Thyroid Gland Carcinoma); experiment: as above
Method in brief: as §1

[8] = system: JHH-1 (Hepatocellular Carcinoma); experiment: as above
Method in brief: as §1

[9] = system: KYM-1 (Rhabdomyosarcoma); experiment: as above
Method in brief: as §1

[10] = system: KYSE-70 (Esophageal Squamous Cell Carcinoma); experiment: as above
Method in brief: as §1

[11] = system: NCI-H1563 (Lung Adenocarcinoma); experiment: as above
Method in brief: as §1

[12] = system: NCI-H810 (Non-Small Cell Lung Carcinoma); experiment: as above
Method in brief: as §1

[13] = system: NKM-1 (Acute Myeloid Leukemia); experiment: as above
Method in brief: as §1

[14] = system: OCI-AML5 (Acute Myeloid Leukemia); experiment: as above
Method in brief: as §1

[15] = system: OVTOKO (Ovarian Carcinoma); experiment: as above
Method in brief: as §1

[16] = system: RL95-2 (Endometrial Carcinoma); experiment: as above
Method in brief: as §1

[17] = system: RPMI-8866 (Chronic Myelogenous Leukemia); experiment: as above
Method in brief: as §1

[18] = system: SJRH30 (Rhabdomyosarcoma); experiment: as above
Method in brief: as §1

[19] = system: CML-T1 (Chronic Myelogenous Leukemia); experiment: combination Emax (second highest fraction inhibited in the dose matrix, 72 h); higher = more inhibition; extreme values may be limits of the assay
Method in brief: as §1

[20] = system: COLO-684 (Endometrial Carcinoma); experiment: as above
Method in brief: as §1
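For Bliss excess, mean over the matrix in this document: after 72 h of two-drug dosing.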

Row | SMILES | Bliss excess [1] | Bliss excess [2] | Bliss excess [3] | Bliss excess [4] | Bliss excess [5] | Bliss excess [6] | Bliss excess [7] | Bliss excess [8] | Bliss excess [9] | Bliss excess [10] | Bliss excess [11] | Bliss excess [12] | Bliss excess [13] | Bliss excess [14] | Bliss excess [15] | Bliss excess [16] | Bliss excess [17] | Bliss excess [18] | combination Emax [19] | combination Emax [20]
1 | Cc1c2c(nn1C)CSCc1cc(n(C)n1)CSc1cc(c3ccccc3c1)OCCCc1c(C(=O)O)n(C)c3c-2c(Cl)ccc13 [AZD5991] + CC1(C)CCC(CN2CCN(c3ccc(C(=O)NS(=O)(=O)c4ccc(NCC5CCOCC5)c([N+](=O)[O-])c4)c(Oc4cnc5[nH]ccc5c4)c3)CC2)=C(c2ccc(Cl)cc2)C1 [Venetoclax] (first compound max 1 µM, 7x7, partner max 1 µM) | -0.034 | -0.0698 | 0.227 | -0.005 | -0.0082 | -0.0597 | -0.0396 | 0.128 | 0.0117 | -0.0296 | 0.0236 | -0.0267 | 0.0517 | 0.0667 | -0.0027 | -0.0463 | -0.0138 | 0.0289 | 0.779 | 0.244
2 | Cc1cc2ncnn2cc1Nc1ncc2c(n1)n(C1CCOCC1)c(=O)n2C [AZD7648] + CCN(CCO)CCCOc1ccc2c(Nc3cc(CC(=O)Nc4cccc(F)c4)[nH]n3)ncnc2c1 [AZD2811] (first compound max 10 µM, 7x7, partner max 1 µM) | 0.0259 | -0.0312 | 0.0203 | 0.0234 | 0.0083 | 0.0161 | 0.0226 | -0.0287 | 0.0571 | 0.0476 | 0.0036 | -0.0162 | 0.0545 | -0.0377 | -0.0011 | 0.0646 | -0.0233 | 0.0417 | 0.49 | 0.302
3 | C=CCn1c(=O)c2cnc(Nc3ccc(N4CCN(C)CC4)cc3)nc2n1-c1cccc(C(C)(C)O)n1 [AZD1775] + C[C@@H]1COCCN1C2=NC(=NC(=C2)C3(CC3)[S@](=N)(=O)C)C4=C5C=CNC5=NC=C4 [AZD6738] (first compound max 1 µM, partner max 10 µM) | 0.109 | -0.0571 | -0.0012 | 0.0245 | 0.0105 | -0.0531 | 0.101 | 0.0194 | 0.0587 | 0.0329 | -0.0303 | 0.0223 | 0.0023 | 0.005 | -0.0308 | 0.0402 | 0.0078 | 0.0467 | 0.971 | 0.851
4 | Cc1c2c(nn1C)CSCc1cc(n(C)n1)CSc1cc(c3ccccc3c1)OCCCc1c(C(=O)O)n(C)c3c-2c(Cl)ccc13 [AZD5991] + CCN(CCO)CCCOc1ccc2c(Nc3cc(CC(=O)Nc4cccc(F)c4)[nH]n3)ncnc2c1 [AZD2811] (first compound max 1 µM, 7x7, partner max 1 µM) | -0.0142 | -0.0331 | 0.114 | 0.0271 | -0.0298 | 0.0347 | 0.0318 | 0.0603 | 0.0646 | 0.0651 | -0.0248 | 0.114 | 0.0291 | -0.0165 | 0.0153 | 0.0272 | 0.149 | 0.0922 | 0.389 | 0.381
5 | CCc1c2c(nc3ccc(O)cc13)-c1cc3c(c(=O)n1C2)COC(=O)[C@]3(O)CC [SN-38] + O=C(c1cc(Cc2n[nH]c(=O)c3ccccc23)ccc1F)N1CCN(C(=O)C2CC2)CC1 [Olaparib] (first compound max 0.3 µM, 7x7, partner max 10 µM) | 0.0937 | -0.0277 | 0.0683 | -0.0188 |  | 0.0371 | 0.0591 | 0.0041 | 0.0383 | 0.0423 |  | 0.107 | 0.0274 |  |  |  | 0.0155 | 0.0591 | 1 | 0.514
6 | COc1nnc2ccc(N3CCC(c4ccc(OCCN5CCN(C)C(=O)[C@H]5C)cc4)CC3)nn12 [AZD5153] + CN(CC[C@H](CSC1=CC=CC=C1)NC2=C(C=C(C=C2)S(=O)(=O)NC(=O)C3=CC=C(C=C3)N4CCC(CC4)[C@H](C5=CC=CC=C5C6=CC=C(C=C6)Cl)O)S(=O)(=O)C(F)(F)F)CCO [AZD4320] (first compound max 1 µM, 7x7, partner max 1 µM) | 0.0508 | -0.08 |  |  | 0.0277 |  | 0.0859 | 0.0585 |  |  | 0.0003 |  |  | 0.0299 | 0.0926 | 0.0571 | -0.0318 | 0.0517 |  | 
7 | CC(=O)c1c(C)c2cnc(Nc3ccc(N4CCNCC4)cn3)nc2n(C2CCCC2)c1=O [Palbociclib] + CN(CC[C@H](CSC1=CC=CC=C1)NC2=C(C=C(C=C2)S(=O)(=O)NC(=O)C3=CC=C(C=C3)N4CCC(CC4)[C@H](C5=CC=CC=C5C6=CC=C(C=C6)Cl)O)S(=O)(=O)C(F)(F)F)CCO [AZD4320] (first compound max 10 µM, 7x7, partner max 1 µM) | -0.0388 | -0.129 |  |  | -0.0649 |  | -0.0712 | -0.0291 |  |  | -0.0292 |  |  | -0.0327 | -0.0621 | -0.0566 | -0.0036 | -0.0467 |  | 
8 | C[C@@H](c1ccc2nccn2c1)n1nnc2ncc(-c3cnn(C)c3)nc21 [Savolitinib] + CN(CC[C@H](CSC1=CC=CC=C1)NC2=C(C=C(C=C2)S(=O)(=O)NC(=O)C3=CC=C(C=C3)N4CCC(CC4)[C@H](C5=CC=CC=C5C6=CC=C(C=C6)Cl)O)S(=O)(=O)C(F)(F)F)CCO [AZD4320] (first compound max 1 µM, 7x7, partner max 1 µM) | -0.0642 | -0.0896 |  |  | -0.0383 |  | -0.0215 | -0.0341 |  |  | -0.0266 |  |  | -0.0418 | -0.0718 | -0.0297 | -0.0815 | -0.0203 |  | 
